This note sets out measurements from PubChem BioAssay (NCI).

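Five concentrations, 48 hours, 96-well plates. At the TGI there is no net growth.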

Some test systems named below: NCI/ADR-RES ovarian; SN12C renal; MDA-MB-435; HOP-62 NSCLC; SF-539 CNS; SK-OV-3 ovarian; MDA-N; KM12 colon; NCI-H226 lung.
What all share (assay): NCI-60 cell line screen, 48 h

As to `CCCCOC(C)(C)/C=C/C(O)[C@](C)(O)[C@H]1[C@H](O)C[C@@]2(C)[C@@H]3CCc4c(cc(OC5OC(CO)C(O)C(O)C5O)c(O)c4C)C3(C)C(=O)C[C@]12C` (stereo partly drawn), the TGI in the experiment on NCI/ADR-RES ovarian, in the experiment with SN12C renal, with MDA-MB-435, in the experiment with HOP-62 NSCLC, with SF-539 CNS and in the experiment on SK-OV-3 ovarian was more than 100 µM throughout. The TGI in the experiment on MDA-N, with KM12 colon and in the experiment with NCI-H226 lung was more than 100 µM in each case.
With `O=C(O)[C@@H]1C[C@@H](O)CN1C(=O)OCc1ccccc1`, the TGI in the experiment on NCI/ADR-RES ovarian, with SN12C renal, in the experiment with MDA-MB-435, with HOP-62 NSCLC, with SF-539 CNS and in the experiment on SK-OV-3 ovarian was more than 100 µM each time. Moreover, the TGI with MDA-N, in the experiment with KM12 colon and in the experiment with NCI-H226 lung was more than 100 µM each time.
In the case of `COC(=O)c1ccccc1/C=C1/Cc2ccccc2C1=O`, the TGI with NCI/ADR-RES ovarian is more than 100 µM; in the experiment with SN12C renal it was 36.5 µM; in the experiment with MDA-MB-435, more than 100 µM; in the experiment with HOP-62 NSCLC it was more than 100 µM; in the experiment with SF-539 CNS it was more than 100 µM; in the experiment with SK-OV-3 ovarian it was more than 100 µM. For the same compound, the TGI was more than 100 µM in the experiment on MDA-N, 96.5 µM in the experiment with KM12 colon and more than 100 µM in the experiment with NCI-H226 lung.
With `CCC[C@H]1C(=O)N=C(N)N1C(=O)OCc1ccccc1`, the TGI with NCI/ADR-RES ovarian, in the experiment on SN12C renal, in the experiment with MDA-MB-435, in the experiment on HOP-62 NSCLC, in the experiment on SF-539 CNS and with MDA-N was more than 100 µM throughout. The TGI in the experiment on KM12 colon and in the experiment on NCI-H226 lung was more than 100 µM in each case.
For the compound `CCOC(=O)c1[nH]cc(C)c1-c1ccn(-c2ccccc2)c1`, the TGI in the experiment on NCI/ADR-RES ovarian, with SN12C renal, in the experiment on MDA-MB-435, in the experiment with HOP-62 NSCLC, in the experiment with SF-539 CNS and in the experiment with SK-OV-3 ovarian was more than 100 µM in each case. The TGI in the experiment with MDA-N, in the experiment on KM12 colon and with NCI-H226 lung was more than 100 µM in each case.
For `O=c1cc(/C=C/c2ccc(O)c(O)c2)oc(/C=C/c2ccc(O)c(O)c2)c1`, the TGI was more than 65.3 µM in the experiment on NCI/ADR-RES ovarian; 16 µM in the experiment on SN12C renal; 11.8 µM in the experiment on MDA-MB-435; 20.2 µM in the experiment on HOP-62 NSCLC; 6.73 µM in the experiment with SF-539 CNS; 21.8 µM with SK-OV-3 ovarian. The figures for the TGI with MDA-N, in the experiment with KM12 colon and with NCI-H226 lung were 16.6 µM, 16 µM and 28.1 µM, respectively.
`O=C1c2ccccc2CN1c1ccc(O)cc1`: the TGI in the experiment on NCI/ADR-RES ovarian, in the experiment with SN12C renal, in the experiment with MDA-MB-435, with HOP-62 NSCLC, in the experiment with SF-539 CNS and with SK-OV-3 ovarian was more than 100 µM throughout. The TGI in the experiment on MDA-N, with KM12 colon and in the experiment on NCI-H226 lung was more than 100 µM in each case.
In the case of `O=[N+]([O-])C(=C(N1CCCCC1)N1CCCCC1)/C(Cl)=C(\Cl)Br`, the TGI in the experiment with NCI/ADR-RES ovarian is 91.8 µM; in the experiment with SN12C renal, more than 100 µM; in the experiment with MDA-MB-435 it was 61.7 µM; in the experiment with HOP-62 NSCLC, more than 100 µM; with SF-539 CNS it was 69.2 µM; in the experiment on SK-OV-3 ovarian, more than 100 µM. Further, the TGI in the experiment with MDA-N was more than 100 µM; in the experiment with KM12 colon, 54.5 µM; in the experiment on NCI-H226 lung, 44.6 µM.
`O=C1CCSSCCC(=O)NCCN1`: the TGI in the experiment with NCI/ADR-RES ovarian, in the experiment on SN12C renal, with MDA-MB-435, in the experiment on HOP-62 NSCLC, in the experiment on SF-539 CNS and with SK-OV-3 ovarian was more than 100 µM throughout. For the same compound, the TGI in the experiment with MDA-N, in the experiment on KM12 colon and with NCI-H226 lung was more than 100 µM throughout.
`C/C(N=Nc1nc2ccccc2s1)=C1/C=CC=CN1O`: the TGI in the experiment on NCI/ADR-RES ovarian was 98.1 µM; with SN12C renal, more than 100 µM; in the experiment on MDA-MB-435, more than 100 µM; with HOP-62 NSCLC, more than 100 µM; in the experiment on SF-539 CNS, more than 100 µM; in the experiment with SK-OV-3 ovarian, more than 100 µM. Further, the TGI with MDA-N, with KM12 colon and in the experiment on NCI-H226 lung was more than 100 µM each time.
As for `CSCCC(NCc1c(O)ccc2c(-c3ccccc3)cc(=O)oc12)C(=O)O` (stereo not drawn), the TGI with NCI/ADR-RES ovarian, with SN12C renal, in the experiment on MDA-MB-435, in the experiment with HOP-62 NSCLC, with SF-539 CNS and in the experiment with SK-OV-3 ovarian was more than 100 µM in each case. The TGI in the experiment with MDA-N, in the experiment with KM12 colon and in the experiment with NCI-H226 lung was more than 100 µM each time.
In the case of `CC(C)=CCc1c2c(c3occ(-c4ccc(O)c(O)c4)c(=O)c3c1O)C=CC(C)(C)O2`, the TGI with NCI/ADR-RES ovarian was 5.87 µM; with SN12C renal it was 3.07 µM; in the experiment on MDA-MB-435, 3.2 µM; in the experiment on HOP-62 NSCLC, 4.4 µM; in the experiment on SF-539 CNS it was 4.14 µM; in the experiment on SK-OV-3 ovarian it was 20.5 µM. The figures for the TGI in the experiment with MDA-N, with KM12 colon and in the experiment with NCI-H226 lung were 3.38 µM, 3.41 µM and 34.6 µM, respectively.
Take `N#Cc1c(-c2ccccc2)/c(=C\Nc2ccc(Cl)cc2)c(=O)n2c1nc1ccccc12`: the TGI in the experiment with NCI/ADR-RES ovarian, in the experiment with SN12C renal, in the experiment with MDA-MB-435, in the experiment with HOP-62 NSCLC, with SF-539 CNS and in the experiment on SK-OV-3 ovarian was more than 100 µM in each case. Moreover, the TGI in the experiment with MDA-N, in the experiment on KM12 colon and in the experiment on NCI-H226 lung was more than 100 µM in each case.
Regarding `O=C(Nc1cccc2cnccc12)c1cc2c(cc1Cl)Sc1nccn1S2(=O)=O`, the TGI worked out at 57.8 µM in the experiment with NCI/ADR-RES ovarian; 30.5 µM in the experiment with SN12C renal; 34.1 µM in the experiment on MDA-MB-435; 39.7 µM with HOP-62 NSCLC; 59.3 µM in the experiment with SF-539 CNS; 86 µM with SK-OV-3 ovarian. Moreover, the TGI was 23.7 µM with MDA-N, 21.9 µM in the experiment with KM12 colon and 38.5 µM in the experiment on NCI-H226 lung.
As to `CCC1=CCC23C(=O)C=CC(=O)C2(C1)C(=O)c1cccc(OC)c1C3=O` (stereo not drawn), the TGI in the experiment with NCI/ADR-RES ovarian amounted to 59.5 µM; in the experiment on SN12C renal, 35.2 µM; in the experiment on MDA-MB-435, 30.8 µM; in the experiment with HOP-62 NSCLC, 42.9 µM; in the experiment with SF-539 CNS, 32.9 µM; in the experiment on MDA-N, 35.7 µM. For the same compound, the TGI in the experiment with KM12 colon came to 43.6 µM; with NCI-H226 lung it was 67.2 µM.
Consider `COc1ccc(N2C(=O)c3c4c(c5c([nH]c6ncccc65)c3C2=O)CCC(C(C)(C)C)C4)cc1` (stereo not drawn), for which the TGI in the experiment on NCI/ADR-RES ovarian, in the experiment with SN12C renal, in the experiment on MDA-MB-435, in the experiment with HOP-62 NSCLC, with SF-539 CNS and in the experiment with SK-OV-3 ovarian was more than 100 µM in each case. Besides, the TGI in the experiment with MDA-N, in the experiment with KM12 colon and in the experiment on NCI-H226 lung was more than 100 µM throughout.
`C=C(Cl)/C(=C\Cl)CCC(Br)C(C)C` (stereo not drawn): the TGI with NCI/ADR-RES ovarian, in the experiment on SN12C renal, in the experiment with MDA-MB-435, in the experiment with HOP-62 NSCLC, in the experiment on SF-539 CNS and in the experiment with SK-OV-3 ovarian was more than 100 µM in each case. Further, the TGI in the experiment with MDA-N, in the experiment on KM12 colon and in the experiment on NCI-H226 lung was more than 100 µM in each case.
Regarding `CC(=O)NS(=O)(=O)c1ccc(NC(=O)c2c3ccccc3nc3ccccc23)cc1`, the TGI in the experiment with NCI/ADR-RES ovarian, in the experiment on SN12C renal, in the experiment on MDA-MB-435, with HOP-62 NSCLC, in the experiment on SF-539 CNS and in the experiment with SK-OV-3 ovarian was more than 100 µM in each case. In addition, the TGI with MDA-N and in the experiment with KM12 colon was more than 100 µM in each case.
In the case of `C1CCSCCCCSCCCCSCCCCSC1`, the TGI in the experiment with NCI/ADR-RES ovarian, in the experiment on SN12C renal, in the experiment with MDA-MB-435, in the experiment on HOP-62 NSCLC, in the experiment with SF-539 CNS and with SK-OV-3 ovarian was more than 100 µM each time. The TGI with MDA-N, with KM12 colon and in the experiment with NCI-H226 lung was more than 100 µM throughout.
Regarding `C[n+]1c(-c2ccccc2)cc2/c(=C\c3ccc([N+](=O)[O-])cc3)c3ccccc3n21`, the TGI in the experiment with NCI/ADR-RES ovarian is more than 100 µM; in the experiment with SN12C renal, more than 33.6 µM; in the experiment with MDA-MB-435, 14.4 µM; in the experiment on HOP-62 NSCLC it was 19.3 µM; in the experiment with SF-539 CNS, 34.7 µM; in the experiment with SK-OV-3 ovarian it was 25.4 µM. In addition, the TGI in the experiment with MDA-N is 21.8 µM; in the experiment with KM12 colon, 17.8 µM; with NCI-H226 lung, 25.4 µM.
For `COc1ccc(N[C@H](CSc2ccc(C)cc2)c2ccc(F)cc2)cc1`, the TGI in the experiment on NCI/ADR-RES ovarian, with SN12C renal, in the experiment with MDA-MB-435, with HOP-62 NSCLC, in the experiment with SF-539 CNS and in the experiment on SK-OV-3 ovarian was more than 100 µM in each case. The TGI in the experiment with MDA-N and in the experiment on KM12 colon was more than 100 µM each time.
For `Cc1cc2c(C)cc(=O)[nH]c2cc1N`, the TGI with NCI/ADR-RES ovarian, in the experiment on SN12C renal, in the experiment on MDA-MB-435, in the experiment on HOP-62 NSCLC, in the experiment on SF-539 CNS and in the experiment on MDA-N was more than 100 µM throughout. Further, the TGI in the experiment with KM12 colon and in the experiment with NCI-H226 lung was more than 100 µM each time.
